Experimental findings from patent US12629355B2, “Drug inhibitor against migration and invasion of cancer cells and methods of treating against metastasis of cancer cells” (HOWARD UNIVERSITY, priority 2019, dated 2026) are described below.

Assay type in all cases: cell-based
For experiment [1], the system named is U251 cells. Put plainly: Filipodia/lamellipodia development of TGF-induced cells on Matrigel, Giemsa stain (FIG. 2, FIG. 4). On the procedure: After incubation, media and matrigels were carefully removed and adherent cells were washed three times with 1×PBS; to visualize cells, cells were incubated with Giemsa Stain (Sigma-Aldrich) (1:20 with water) for 10 minutes, washed in water until no blue color rinsed out from the well images under a Zeiss Compound microscope.
It is shown in the FIG. 2 and FIG. 3 that 100 uM of SD 29-14 is effective in inhibiting the migration potential of the two different representative cancer cell lines, which establishes this drug as a candidate anti-metastasis drug for treating against cancers where a role of RACK1 upregulation is or has been shown in the metastasis process. There are many reviews on the RACK1 protein the cancer cell migration (e.g., Li and Xie, 2015; Duff and Long, 2017, among others).
Efficacy for inhibiting migration at a lower concentration of a representative compound was also investigated. Cancer cell lines were treated under conditions as used above for FIG. 2 and FIG. 3 but with both 10 μM and 100 μM SD29-14.

For the next experiment, the target named is T1, RACK1 protein (Homo sapiens, UniProt P63244).
T1 construct: endogenous in cells; host or cells: MCF-7
Put plainly: RACK1 protein expression, western blot (FIG. 7). The settings on record: MCF-7 cells, 6 days, compound added on day 1 and day 4. The procedure: As to FIG. 7, MCF-7 cells were washed three times in PBS after growth on MEM media for 6 days. The indicated compounds were added on day 1 and day 4 of the treatment. The cells were lysed in the lysis buffer (Cell Signaling, MA) supplemented with protease inhibitor cocktail (Sigma-Aldrich), Protein Tyrosine phosphatase inhibitors (Santa Cruz Biotechnology, TX), and N-Ethylamaleimide (Sigma-Aldrich) at 25 mM to inhibit de-sumoylation. Twenty five micrograms of proteins were loaded on the BIORAD company's 4-12% precast polyacrylamide gel, transferred to a PVDF membrane and then blocked with 5% non-fat milk (Biorad) for one hour, washed and incubated overnight at 4 C with the RACK1 antibody (1:2500 dilution) purchased from the Santa Cruz Biotechnology. After overnight incubation, the membrane was washed 3× in PBST and then incubated with a horseradish peroxidase-coupled mouse secondary antibody for an hour at room temperature and the bands were detected with enhanced chemiluminescence (Pierce, Rockford, IL, USA), according to standard methods. […] This served as the loading control.
On the technique in general: A western blot detects proteins with antibodies after separation by electrophoresis.

For experiment [2], the system named is U251 cells. Briefly: Transwell invasion assay (FIG. 10). The settings on record: serum free media with TGF in upper chamber, about 14 hours. On the procedure:
A transwell assay is conducted as a means for testing for invasion. A transwell invasion assay can be used to test the invasive potential of cells in response migration inducers or inhibitors. This assay is also known as modified Boyden chamber assay. During this assay, cells are placed on the upper layer of a cell culture insert with permeable membrane and a solution containing the test agent is placed below the cell permeable membrane. Following an incubation period (3-18 hours) at 37° C. in a humidified chamber, the cells that have stuck during the migration towards the lower chamber through the membrane are stained and counted. […] Collectively, these findings (as shown in FIG. 9 and FIG. 10) indicate that administering a representative compound (SD 29-14) played a significant functional role in the regulation of U251 glioma cell migration and invasion.
In measuring cell invasion, 12-well transwell chambers (Corning Inc., Kennebunk, ME) were used with 6.5 mm inserts and 8.0 μm membrane pore size. […] Invasive cells on the bottom surface were fixed with 4% paraformaldehyde for 15 min and stained with 0.2% crystal violet for 15 minutes and the cells were counted and photographed under a light microscope.

A further experiment concerns FAK. Put plainly: Localization of FAK, immunofluorescence (FIG. 13). Conditions: versus DMSO+TGF (5 ng/ml) control. The procedure:
FIG. 13 presents in photomicrographs a comparison between an illustrative cancer in which the treatment involved using DMSO+TGF (5 ng/ml) as a control and the illustrative cancer cell in which the in vitro treatment involved using a compound according to a formulae (1), (2) or (3) herein+TGF (5 ng/ml). The block of four photomicrographs on the left is for the control. […] Inability to co-localize would inhibit the downstream modifications of FAK reported as needed for migration.
As to FIGS. 12 and 13, cells were grown to almost 80% confluency and then serum starved for 24 hours. Then treated with the representative compound SD 29-14 for additional 24 h. No TGFbeta1 was used in this assay. After 24 h, cells were prepared for the immunofluorescence imaging essentially with the same procedure as described for FIG. 9. The antibody for the FAK was purchased from GeneTex (Irvine, CA). The secondary was rabbit TRITC. The primary RACK1 antibody coupled with a FITC reporter was purchased from Santa Cruz Biotechnology (Dallas, TX).

Another experiment deals with pY397-FAK. Put plainly: pY397-FAK expression, immunofluorescence (FIG. 15). The settings on record: U251 cells, 96 h, 5 ng/ml TGF-beta. An excerpt: As to FIGS. 14 and 15, in order to evaluate the effect of a representative compound (SD 29-14) as a drug for inducing functional inactivation of RACK1 on the FAK phosphorylation, the drug was used in testing with breast cancer cells (MCF7, FIG. 14) and with glioblastoma cancer cells (U251, FIG. 15). In this immunofluorescence experiment, the pY397-FAK expressing cells were stained with FITC tagged secondary antibody (green) and RACK1 was stained with TRITC tagged secondary antibody (red). Here 5 ng/ml TGFbeta was used to induce cell migration. […] As discussed above, without the pY397-FAK present, the connection between the ECM and cell interiors will be disrupted which will inhibit the cell's potential to migrate by initiating the cell's adhesion to the ECM.
As to FIGS. 14 and 15, and the methods, the immunofluorescence experiments are essentially same as described with reference to FIG. 9 with a slight modification in the duration of the drug treatment. The cancer cells (MCF7 or U251) were incubated with a drug (SD 29-14) or with DMSO (left panel) for 96 h in the presence of 5 ng/ml TGF-beta. After indicated incubation period, the cells were fixed and stained with antibody as described for FIG. 9 methods.

For `Nn1c(S)nnc1-c1cc(Cl)cc(Cl)c1` [SD 29-14], the “efficacy to inhibit filipodia and lamellipodia development” value in the experiment with U251 cells [1] (10 μM, 72 h grown (FIG. 4)) is “maintained”. Besides, the “filipodia and lamellipodia development” value with U251 cells [1] (100 uM, TGF on Matrigel, 48 h treated then 20 h on Matrigel) is “inhibition of the filipodia and lamellipodia development”. For the same compound, the RACK1 protein expression result at RACK1 protein is reported as “significant of RACK1 proteins”. The “cells on the membrane (invasion)” value in the experiment on U251 cells [2] is given as “hardly any cells were observed on the membrane”. Besides, the “localization of FAK” value in the experiment with FAK was “blocks localization of FAK”. For the same compound, the “expression of pY397-FAK at the cell protrusions” value in the experiment on pY397-FAK is listed as “almost completely inhibited”.
